From ChEMBL document CHEMBL2434831, “Imidazo[4,5-b]pyridine inhibitors of B-Raf kinase” (Bioorg Med Chem Lett, 2013) come the findings set out here.

What is called pIC50 is −log10 of the IC50, conventionally taken in molar units.

Data set [1] deals with Serine/threonine-protein kinase B-raf (Homo sapiens), P15056 [V600E]. The experiment in a line: Ratio of IC50 for B-Raf V600E mutant in human Malme-3M cells to IC50 for full length B-Raf V600E mutant (unknown origin). The format is cell-based.
The target in data set [2] is T1, Serine/threonine-protein kinase B-raf (Homo sapiens, UniProt P15056, V600E). The experiment in a line: Inhibition of B-Raf V600E mutant in human Malme-3M cells assessed as basal ERK phosphorylation. The format is cell-based.
The target of data set [3] is T1, Serine/threonine-protein kinase B-raf. The experiment in a line: Inhibition of full length B-Raf V600E mutant (unknown origin).
The nature of data set [4]: Permeability from apical to basolateral side in human Caco2 cells. The format is ADME, cell-based. Particulars: Caco-2, read-out: permeability. A general note: Caco-2 cells form a polarised layer with tight junctions and transporters; call rule not given here.
A short description of data set [5]: Inhibition of cytochrome P450 (unknown origin). The format is ADME. Conditions: human.

Each structure is given as a SMILES string. pIC50: −log10 of the molar value. Some results are limits rather than exact numbers.

Chain of Serine/threonine-protein kinase B-raf (Homo sapiens), P15056 [V600E] (P15056 whole entry V600E): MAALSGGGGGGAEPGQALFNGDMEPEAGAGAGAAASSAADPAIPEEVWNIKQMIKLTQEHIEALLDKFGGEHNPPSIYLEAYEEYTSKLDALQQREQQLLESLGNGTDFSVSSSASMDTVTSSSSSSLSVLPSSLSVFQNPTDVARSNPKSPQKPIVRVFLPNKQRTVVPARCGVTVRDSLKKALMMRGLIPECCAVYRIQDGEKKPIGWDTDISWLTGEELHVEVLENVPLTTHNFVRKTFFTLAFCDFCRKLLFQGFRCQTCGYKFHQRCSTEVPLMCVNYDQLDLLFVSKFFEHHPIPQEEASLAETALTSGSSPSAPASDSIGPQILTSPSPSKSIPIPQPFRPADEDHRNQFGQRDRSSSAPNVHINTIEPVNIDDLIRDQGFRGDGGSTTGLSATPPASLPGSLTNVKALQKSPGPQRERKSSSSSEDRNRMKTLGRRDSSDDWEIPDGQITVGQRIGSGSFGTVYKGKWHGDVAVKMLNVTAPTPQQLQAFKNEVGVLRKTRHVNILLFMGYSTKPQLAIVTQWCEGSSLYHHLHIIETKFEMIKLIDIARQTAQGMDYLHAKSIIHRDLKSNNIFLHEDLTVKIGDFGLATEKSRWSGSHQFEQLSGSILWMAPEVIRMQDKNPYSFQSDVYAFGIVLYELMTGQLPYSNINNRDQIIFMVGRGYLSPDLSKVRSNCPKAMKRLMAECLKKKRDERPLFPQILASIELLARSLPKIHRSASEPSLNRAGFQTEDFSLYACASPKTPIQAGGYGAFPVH
T1 sequence (P15056 2-766 V600E limits assumed): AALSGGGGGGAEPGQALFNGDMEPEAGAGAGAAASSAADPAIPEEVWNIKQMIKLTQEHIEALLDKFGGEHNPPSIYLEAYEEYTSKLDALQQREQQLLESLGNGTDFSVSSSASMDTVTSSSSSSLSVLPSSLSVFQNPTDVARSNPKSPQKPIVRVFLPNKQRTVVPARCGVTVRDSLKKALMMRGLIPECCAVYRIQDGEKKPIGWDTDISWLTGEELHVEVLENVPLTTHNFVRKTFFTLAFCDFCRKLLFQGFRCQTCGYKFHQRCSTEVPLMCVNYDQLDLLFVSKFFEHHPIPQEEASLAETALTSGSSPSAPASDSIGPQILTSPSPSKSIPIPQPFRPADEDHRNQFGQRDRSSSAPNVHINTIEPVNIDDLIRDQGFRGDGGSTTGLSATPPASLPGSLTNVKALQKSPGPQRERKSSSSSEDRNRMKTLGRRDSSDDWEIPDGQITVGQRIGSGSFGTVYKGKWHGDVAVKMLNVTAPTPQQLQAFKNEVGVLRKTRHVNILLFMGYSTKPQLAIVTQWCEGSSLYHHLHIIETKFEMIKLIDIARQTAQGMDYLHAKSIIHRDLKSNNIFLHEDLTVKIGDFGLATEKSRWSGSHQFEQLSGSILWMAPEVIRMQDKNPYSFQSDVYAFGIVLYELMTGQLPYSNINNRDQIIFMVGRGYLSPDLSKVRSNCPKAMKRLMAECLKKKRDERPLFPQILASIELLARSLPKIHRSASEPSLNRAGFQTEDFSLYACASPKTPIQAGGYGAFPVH

`CCCS(=O)(=O)Nc1ccc(F)c(C(=O)Nc2cnc3[nH]c(-c4cccc(F)c4)nc3c2)c1F`: in data set [1], the Ratio IC50 turned out to be 97. In addition, the pIC50 in data set [2] is 6.53; in data set [3], 8.51.
As for `CCCS(=O)(=O)Nc1ccc(F)c(C(=O)Nc2cnc3[nH]cnc3c2)c1F`, the Papp A→B in data set [4] was found to be 0.6 ×10⁻⁶ cm/s. The Ratio IC50 in data set [1] stood at 39.
For the compound `CCCS(=O)(=O)Nc1ccc(F)c(C(=O)Nc2cnc3[nH]c(C(C)(C)C)nc3c2)c1F`, the Ratio IC50 in data set [1] came to 23. The results for the negative logarithm of the IC50 (pIC50) in data set [2] and in data set [3] were 5.81 and 7.16, respectively.
For the compound `CCCS(=O)(=O)Nc1ccc(F)c(C(=O)Nc2cnc3[nH]c(-c4ccc(S(C)(=O)=O)cc4)nc3c2)c1F`, the Ratio IC50 in data set [1] came out at 527. For the same compound, the pIC50 in data set [2] is 6.14; in data set [3], 8.85.
As for `CCCS(=O)(=O)Nc1ccc(F)c(C(=O)Nc2cnc3[nH]c(-c4ccc(F)cc4)cc3c2)c1F`, the Ratio IC50 in data set [1] was 18. The negative logarithm of the IC50 (pIC50) in data set [2] was 7.70; in data set [3], 8.96.
As to `CCCS(=O)(=O)Nc1ccc(F)c(C(=O)Nc2cnc3[nH]c(C4CCC4)nc3c2)c1F`, the Ratio IC50 in data set [1] came to 107. Moreover, the figures for the pIC50 in data set [2] and in data set [3] were 5.48 and 7.51, respectively.
In the case of `CCCS(=O)(=O)Nc1ccc(F)c(C(=O)Nc2cnc3cc(-c4ccc(Cl)cc4)nn3c2)c1F`, in data set [1], the Ratio IC50 amounted to 11. The pIC50 in data set [2] was 7.05; in data set [3], 8.09.
Regarding `CCCS(=O)(=O)Nc1ccc(F)c(C(=O)Nc2cnc3cc(-c4ccc(F)cc4)nn3c2)c1F`, in data set [1], the Ratio IC50 was determined as 4.9.
For `CCCS(=O)(=O)Nc1ccc(F)c(C(=O)Nc2cnc3[nH]c(CC)nc3c2)c1F`, the Ratio IC50 in data set [1] worked out at 30. Besides, the results for the pIC50 in data set [2] and in data set [3] were 5.75 and 7.23, respectively.
Consider `CCCS(=O)(=O)Nc1ccc(F)c(C(=O)Nc2cnc3[nH]c(-c4ccc(F)cc4)nc3c2)c1F`, for which the Ratio IC50 in data set [1] stood at 240. For the same compound, the pIC50 was 5.98 in data set [2] and 8.36 in data set [3].
Turning to `CCCS(=O)(=O)Nc1ccc(F)c(C(=O)Nc2cnc3[nH]c(-c4cccnc4)nc3c2)c1F`, the Ratio IC50 in data set [1] worked out at 375. Further, the pIC50 is 5.95 in data set [2] and 8.52 in data set [3].
As for `CCCS(=O)(=O)Nc1ccc(F)c(C(=O)Nc2cnc3[nH]c(-c4ccc(Cl)cc4)cc3c2)c1F`, in data set [1], the Ratio IC50 turned out to be 8.4. For the same compound, the pIC50 in data set [2] was 7.70; in data set [3], 8.62.
Consider `CCCS(=O)(=O)Nc1ccc(F)c(C(=O)Nc2cnc3[nH]c(C)nc3c2)c1F`, for which the Ratio IC50 in data set [1] was determined as 43. In addition, the pIC50 was 5.77 in data set [2] and 7.40 in data set [3].
With `CCCS(=O)(=O)Nc1ccc(F)c(C(=O)Nc2cnc3[nH]c(C4CCCNC4)nc3c2)c1F` (stereo not drawn), the Ratio IC50 in data set [1] was above 60. The pIC50 is below 5.00 in data set [2] and 6.78 in data set [3].
Take `CCCS(=O)(=O)Nc1ccc(F)c(C(=O)Nc2cnc3[nH]c(-c4ccccc4Cl)nc3c2)c1F`: the Ratio IC50 in data set [1] amounted to 21. For the same compound, the pIC50 in data set [2] was 6.25; in data set [3] it was 7.57.
As for `CCCS(=O)(=O)Nc1ccc(F)c(C(=O)Nc2cnc3[nH]c(-c4cccc(OC)c4)nc3c2)c1F`, in data set [1], the Ratio IC50 turned out to be 219. For the same compound, the results for the pIC50 in data set [2] and in data set [3] were 6.57 and 8.92, respectively.
Consider `CCCS(=O)(=O)Nc1ccc(F)c(C(=O)Nc2cnc3[nH]c(-c4ccc(C)cc4)nc3c2)c1F`, for which the Papp A→B in data set [4] came out at 2.6 ×10⁻⁶ cm/s. The Ratio IC50 in data set [1] turned out to be 38. Also, the pIC50 in data set [2] was 7.31; in data set [3] it was 8.89.
As to `CCCS(=O)(=O)Nc1ccc(F)c(C(=O)Nc2cnc3[nH]c(-c4cccc(Cl)c4)nc3c2)c1F`, the Ratio IC50 in data set [1] stood at 62. Further, the values for the pIC50 in data set [2] and in data set [3] were 7.17 and 8.96, respectively.
On to `CCCS(=O)(=O)Nc1ccc(F)c(C(=O)Nc2cnc3[nH]ccc3c2)c1F`, for which the Papp A→B in data set [4] came to 7.3 ×10⁻⁶ cm/s. Further, the pIC50 in data set [3] was 7.38.
On to `CCCS(=O)(=O)Nc1ccc(F)c(C(=O)Nc2cnc3[nH]c(C4CCNCC4)nc3c2)c1F`, for which the Ratio IC50 in data set [1] is above 93. For the same compound, the pIC50 in data set [2] is below 5.00; in data set [3], 6.97.
On to `CCCS(=O)(=O)Nc1ccc(F)c(C(=O)Nc2cnc3[nH]c(-c4ccc(Cl)c(Cl)c4)nc3c2)c1F`, for which the Papp A→B in data set [4] was found to be 2 ×10⁻⁶ cm/s. Besides, the Ratio IC50 in data set [1] is 54. Further, the pIC50 was 7.09 in data set [2] and 8.82 in data set [3]. In addition, the “inhibition (INH)” value in data set [5] is listed as “Not Active”.
Turning to `CCCS(=O)(=O)Nc1ccc(F)c(C(=O)Nc2cnc3[nH]c(-c4ccccc4Br)nc3c2)c1F`, the Ratio IC50 in data set [1] worked out at 35. Also, the figures for the pIC50 in data set [2] and in data set [3] were 6.02 and 7.57, respectively.
For `CCCS(=O)(=O)Nc1ccc(F)c(C(=O)Nc2cnc3[nH]c(-c4cccc(C(F)(F)F)c4)nc3c2)c1F`, in data set [1], the Ratio IC50 turned out to be 112. Also, the pIC50 in data set [2] was 6.95; in data set [3], 9.00.
`CCCS(=O)(=O)Nc1ccc(F)c(C(=O)Nc2cnc3[nH]c(-c4ccccc4)cc3c2)c1F`: in data set [4], the Papp A→B worked out at 5.6 ×10⁻⁶ cm/s. Moreover, in data set [1], the Ratio IC50 was 32. Also, the pIC50 was 7.49 in data set [2] and 9.00 in data set [3].
As for `CCCS(=O)(=O)Nc1ccc(F)c(C(=O)Nc2cnc3[nH]c(C(C)C)nc3c2)c1F`, the Ratio IC50 in data set [1] amounted to 29. For the same compound, the values for the pIC50 in data set [2] and in data set [3] were 5.76 and 7.22, respectively.
As to `CCCS(=O)(=O)Nc1ccc(F)c(C(=O)Nc2cnc3[nH]c(-c4ccc(OC)cc4)nc3c2)c1F`, in data set [1], the Ratio IC50 was determined as 125. Besides, the negative logarithm of the IC50 (pIC50) in data set [2] was 6.86; in data set [3], 8.96.
Regarding `CCCS(=O)(=O)Nc1ccc(F)c(C(=O)Nc2cnc3[nH]ncc3c2)c1F`, in data set [4], the Papp A→B is 1.3 ×10⁻⁶ cm/s. This compound gave a negative logarithm of the IC50 (pIC50) in data set [3] of 7.74.
For `CCCS(=O)(=O)Nc1ccc(F)c(C(=O)Nc2cnc3[nH]c(-c4ccccc4)nc3c2)c1F`, the pIC50 in data set [2] is 6.88; in data set [3] it was 8.80.
As for `CCCS(=O)(=O)Nc1ccc(F)c(C(=O)Nc2cnc3[nH]c(-c4ccc(F)c(F)c4)nc3c2)c1F`, in data set [1], the Ratio IC50 stood at 57. For the same compound, the figures for the pIC50 in data set [2] and in data set [3] were 6.71 and 8.47, respectively.
Consider `CCCS(=O)(=O)Nc1ccc(F)c(C(=O)Nc2cnc3[nH]c(-c4ccc(C(F)(F)F)cc4)nc3c2)c1F`, for which the Papp A→B in data set [4] is 1 ×10⁻⁶ cm/s. Further, the Ratio IC50 in data set [1] is 62. For the same compound, the values for the pIC50 in data set [2] and in data set [3] were 7.05 and 8.85, respectively.
Regarding `CCCS(=O)(=O)Nc1ccc(F)c(C(=O)Nc2cnc3[nH]c(-c4ccncc4)nc3c2)c1F`, the Ratio IC50 in data set [1] is 596. In addition, the pIC50 is 5.72 in data set [2] and 8.49 in data set [3].
`CCCS(=O)(=O)Nc1ccc(F)c(C(=O)Nc2cnc3ccnn3c2)c1F`: in data set [4], the Papp A→B turned out to be 11.4 ×10⁻⁶ cm/s.
On to `CCCS(=O)(=O)Nc1ccc(F)c(C(=O)Nc2cnc3[nH]c(-c4ccc(Cl)cc4)nc3c2)c1F`, for which the Ratio IC50 in data set [1] was found to be 71. Besides, the pIC50 was 6.80 in data set [2] and 8.66 in data set [3].
Take `CCCS(=O)(=O)Nc1ccc(F)c(C(=O)Nc2cnc3[nH]c(-c4ccc(OC(F)(F)F)cc4)nc3c2)c1F`: in data set [1], the Ratio IC50 was 34. Besides, the pIC50 in data set [2] was 7.07; in data set [3], 8.60.
For the compound `CCCS(=O)(=O)Nc1ccc(F)c(C(=O)Nc2cnc3[nH]c(-c4ccc(Br)cc4)nc3c2)c1F`, the Papp A→B in data set [4] is 1.3 ×10⁻⁶ cm/s. In addition, in data set [1], the Ratio IC50 was 28. The pIC50 in data set [2] was 7.21; in data set [3], 8.66.
For the compound `CCCS(=O)(=O)Nc1ccc(F)c(C(=O)Nc2cnc3[nH]c(-c4ccccc4F)nc3c2)c1F`, the Ratio IC50 in data set [1] amounted to 21. Besides, the pIC50 was 6.78 in data set [2] and 8.10 in data set [3].
Take `CCCS(=O)(=O)Nc1ccc(F)c(C(=O)Nc2cnc3cc(-c4ccccc4)nn3c2)c1F`: the Papp A→B in data set [4] was 15.6 ×10⁻⁶ cm/s.
As to `CCCS(=O)(=O)Nc1ccc(F)c(C(=O)Nc2cnc3[nH]c(-c4cccc(Br)c4)nc3c2)c1F`, in data set [1], the Ratio IC50 worked out at 226. For the same compound, the pIC50 in data set [2] is 6.76; in data set [3] it was 9.12.
The like results for `CCCS(=O)(=O)Nc1ccc(F)c(C(=O)Nc2cnc3[nH]c(-c4ccc(C#N)cc4)nc3c2)c1F` were, in that order, 88, 6.62 and 8.57.
